According to patent US20090181080A1, “Oral cannabinnoid liquid formulations and methods of treatment” (Insys Therapeutics Inc., priority 2007, published 2009):

Experiment: Threshold concentration versus duration of effect analysis of Example 35 data
Assay type: in vivo, human
Protocol: In Example 38, the individual concentration-time profiles for soft gelatin capsules of Example 35 were analyzed to identify the mean duration of effect in that subject population, for a range of threshold concentrations (e.g., minimum effective concentrations). The results are depicted in FIG. 4.

[1] = 5 mg dose, by dose-proportional scaling
[2] = dose of 10 mg dronabinol, soft gelatin capsules of Example 35 data

Structure (SMILES): CCCCCc1cc(O)c2c(c1)OC(C)(C)[C@@H]1CCC(C)=C[C@@H]21 [dronabinol, Delta-9-Tetrahydrocannabinol]
- threshold concentration for a 4 hour duration of effect [1]: approximately 0.28 ng/mL
- threshold concentration for a 6 hour duration of effect [1]: ~0.12 ng/mL
- threshold concentration required for a 4 hour duration of effect [2]: approximately 0.56 ng/mL
- threshold concentration required for a 6 hour duration of action [2]: approximately 0.24 ng/mL
